Data: US20240285670A1, “THERAPEUTIC TREATMENT OF TUMORS BY BLOCKING THE HEME SYNTHESIS-EXPORT AXIS” (Università degli Studi di Torino, priority 2021, published 2024)

Key:
Type in all cases: cell-based, human
BTECs = assay: Wound healing assay (BTECs migration); conditions: FLVCR1a-silenced vs scramble shRNA BTECs
From the text: (A) BTECs counting, as a readout of cell proliferation, at the indicated time points. […] Data represent mean±SEM, n=4. For statistical analyses, a two-way analysis of variance was used, followed by the Bonferroni correction for multiple group comparisons; ***p<0.001. (B) Quantification of BTECs migration rate in wound-healing assay. […] Data represent mean±SEM, n=32. For statistical analyses, a nonparametric unpaired Mann-Whitney test was used; ***p<0.001. (C) In vitro tubulogenesis assay on matrigel. […] The number of nodes counted within the neo-formed vascular networks is shown. Data represent mean±SEM; n=10. For statistical analyses, a nonparametric unpaired Mann-Whitney test was used; **p<0.01.
To evaluate cell motility, BTECs were grown to confluence in 24-well plates coated with 1% Gelatin from bovine skin (Sigma-Aldrich, St. Louis, MO USA, catalog n° G9391). […] Cell migration into the wound was monitored using a Nikon Eclipse T-E microscope with a 4× objective. […] Three separate wells were used for each condition and, in each well, at least six fields were analysed for each condition. Cell migration into the wound was assessed using Fiji open source software (Schindelin et al., 2012) (http://fiji.sc/ RRID:SCR_002285), by measuring the distance between the two sides of the wound at each time point. Data were expressed as percentage of cell migration. […]

SKCO1 cells = assay: Activity of mitochondrial ETC complexes I-IV in SKCO1 cells; conditions: FLVCR1a-silenced vs scramble shRNA SKCO1 cells
From the text: (§1) (A, C, E) Activities of the mitochondrial electron transport chain complexes I-IV. FLVCR1a-silenced Caco2 (A), SKCO1 (C) or C80 cells (E) are compared to cells expressing a scramble shRNA. Results were expressed as nmol NAD^+/min/mg mitochondrial protein for complex I, nmol reduced cytochrome c/min/mg mitochondrial protein for complexes II-III, nmol oxidized cytochrome c/min/mg mitochondrial protein for complex IV. Data represent mean±SEM, n=3. For statistical analyses, an unpaired Student's t-test was used; *=p<0.05, **=p<0.01. (B, D, F) Mitochondrial ATP levels measured by a bioluminescent assay kit. FLVCR1a-silenced Caco2 (B), SKCO1 (D) or C80 cells (F) are compared to cells expressing a scramble shRNA. Results are expressed as nmol/mg mitochondrial proteins. Data represent mean±SEM, n=3. […] Results were expressed as nmol NAD^+/min/mg mitochondrial protein for complex I, nmol reduced cytochrome c/min/mg mitochondrial protein for complexes II-III, nmol oxidized cytochrome c/min/mg mitochondrial protein for complex IV. […] (H) Mitochondrial ATP levels measured by a bioluminescent assay kit in Caco2 cells overexpressing FLVCR1a (indicated as FLVCR1a+) compared to cells stably transduced with an empty vector. Results are expressed as nmol/mg mitochondrial proteins. […]
(§2) The activity of mitochondria respiration complexes was measured according to (Wibom et al., 2002).

C80 cells = assay: Activity of mitochondrial ETC complexes I-IV in C80 cells; conditions: FLVCR1a-silenced vs scramble shRNA C80 cells
From the text: as §1, §2

FLVCR1a shRNA: shRNA specifically down-regulating FLVCR1a without targeting FLVCR1b; pLKO.1 lentiviral clone TRCN0000059599, antisense SEQ ID No.: 2 (antisense TTGCTAATGATGCTGTACTGG; sense CCAGTACAGCATCATTAGCAA)
migratory rate (BTECs): reduction of the migratory rate | ETC complexes activity (SKCO1 cells): increased ETC complexes activity | ETC complexes activity (C80 cells): increased ETC complexes activity
